Measurements reported in EP0442958B1, “PHARMACEUTICAL COMPOSITION FOR OPHTHALMIC USE COMPRISING A WATER SOLUBLE ACID ADDITION SALT OF IBOPAMINE” (ZAMBON GROUP S.p.A., priority 1988, dated 1990).
Where a name gives a salt, the structure may show the parent alone.

Key:
[1] = Stability of aqueous ibopamine solutions (ibopamine titer); assay type: physicochemical; conditions: aqueous solutions buffered at pH 4.5, room temperature
[2] = well known, WO 86/03970; cited from earlier work

period for which ibopamine titer remains substantially unchanged [1] [days] | SMILES | mydriatic activity [2]
20 to 25 | CNCCc1ccc(OC(=O)C(C)C)c(OC(=O)C(C)C)c1 [ibopamine hydrochloride, Ibopamine hydrochloride] | –
– | CNCCc1ccc(OC(=O)C(C)C)c(OC(=O)C(C)C)c1 [ibopamine, epinine 3,4-0-diisobutyrate] | endowed with mydriatic activity
